Source: BindingDB's records for doi:10.1016/j.bmcl.2004.04.008 (Fudan University, 2004)

What was measured:
[1] = Concentration required to protect the cell against HIV-1 strain IIIB viral cytopathogenicity by 50% in MT-4 cells
[2] = Inhibitory concentration against SO561945 (HIV 1 mutant RT) viral infection of MT-4 cells
[3] = as above; remark: listed apart in the source

Row | Structure (SMILES) | IC50 [1] [nM] | IC50 [2] [µM] | IC50 [3] [nM]
1 | Cc1c(Sc2ccccc2)n(COCCO)c(=O)[nH]c1=O | 5060 | > 405 | 
2 | COc1ccc(C(=O)CSc2nc(Cc3cccc4ccccc34)c(C)c(=O)[nH]2)cc1 |  |  | 370
3 | CCc1c(Cc2cccc3ccccc23)nc(SCC(=O)c2ccc(F)cc2)[nH]c1=O | 78 | 24.2 | 
4 | COC(=O)CSc1nc(Cc2cccc3ccccc23)c(C(C)C)c(=O)[nH]1 | 4490 | > 179 | 
5 | CCc1c(Cc2cccc3ccccc23)nc(SCC(=O)c2ccc(C)cc2)[nH]c1=O |  |  | 320
6 | CC(=O)CSc1nc(Cc2cccc3ccccc23)c(C(C)C)c(=O)[nH]1 | 410 | > 43.1 | 
7 | CCc1c(Cc2cccc3ccccc23)nc(SCC(=O)c2ccc(OC)cc2)[nH]c1=O |  | > 178 | 45
8 | COc1ccc(C(=O)CSc2nc(Cc3cccc4ccccc34)c(C(C)C)c(=O)[nH]2)cc1 | 30 | 5.82 | 
9 | CCc1c(Cc2cccc3ccccc23)nc(SCC(=O)c2ccc(Cl)cc2)[nH]c1=O | 260 | > 56 | 
10 | CCOC(=O)CSc1nc(Cc2cccc3ccccc23)c(C)c(=O)[nH]1 |  |  | 7000
11 | COC(=O)CSc1nc(Cc2cccc3ccccc23)c(C)c(=O)[nH]1 |  |  | 6990
12 | CCOC(=O)CSc1nc(Cc2cccc3ccccc23)c(C(C)C)c(=O)[nH]1 |  | > 175 | 1410
13 | Cc1ccc(C(=O)CSc2nc(Cc3cccc4ccccc34)c(C)c(=O)[nH]2)cc1 |  |  | 670
14 | Cc1c(Cc2cccc3ccccc23)nc(SCC(=O)c2ccc(F)cc2)[nH]c1=O |  |  | 180
15 | CC(C)c1c(Cc2cccc3ccccc23)nc(SCC(=O)c2ccc(F)cc2)[nH]c1=O | 78 | 188 | 
16 | CC(C)c1c(Cc2cccc3ccccc23)nc(SCC(=O)c2ccc(Cl)cc2)[nH]c1=O | 320 |  | > 270000
17 | Cc1c(Cc2cccc3ccccc23)nc(SCC(=O)c2ccc(Cl)cc2)[nH]c1=O |  |  | 550
18 | Cc1ccc(C(=O)CSc2nc(Cc3cccc4ccccc34)c(C(C)C)c(=O)[nH]2)c(C)c1 |  | 2.67 | 240
19 | CC(C)c1c(Cc2cccc3ccccc23)nc(SCC(=O)c2ccccc2)[nH]c1=O | 46 | 19.6 | 
20 | CCc1c(Cc2cccc3ccccc23)nc(SCC(=O)OC)[nH]c1=O |  |  | 4720
21 | CC(=O)CSc1nc(Cc2cccc3ccccc23)c(C)c(=O)[nH]1 |  |  | 1120
22 | Cc1ccc(C(=O)CSc2nc(Cc3cccc4ccccc34)c(C(C)C)c(=O)[nH]2)cc1 |  |  | 240
23 | O=c1[nH]cnc2c1ncn2[C@H]1CC[C@@H](CO)O1 [BMY-40900] | 5370 | 7.15 | 
